Active and inactive are the calls of the source. The rule behind the calls is not given here.
How the values were obtained:
[1] = Acute ulcerogenic activity in Sprague-Dawley male rat assessed as change in normal keratinized gastric mucosa at 50 mg/kg/day, po administered for 3 days by hematoxylin and eosin staining method; format: toxicity, organism-based, Stomach; conditions: in vivo, 72 h, time 3 day
[2] = test system: HT-29; assay: Induction of apoptosis in human HT-29 cells assessed as accumulation of cells at late apoptotic stage at 0.5 uM incubated for 24 hrs by Annexin V-FITC/propidium iodide staining based flow cytometry analysis (reference value: 0.2%); format: functional
[3] = test system: HT-29; assay: Induction of apoptosis in human HT-29 cells assessed as accumulation of cells at necrotic stage at 0.5 uM incubated for 24 hrs by Annexin V-FITC/propidium iodide staining based flow cytometry analysis (reference value: 8.1%); format: functional
[4] = test system: HT-29; assay: Cytotoxicity against human HT-29 cells assessed as inhibition in cell growth incubated for 72 hrs by MTT assay; format: functional, cell-based; conditions: HT-29, 72 h
[5] = test system: Rattus norvegicus; assay: Antiinflammatory activity against carrageenan-induced paw edema Sprague-Dawley rat model assessed as inhibition of inflammation at 50 mg/kg, po after 3 hrs relative to control; format: functional; set-up: scale not given: the % may be the effect or the level left
[6] = Selectivity index, ratio of IC50 for cytotoxicity against human MRC5 cells to IC50 for cytotoxicity against human MCF7 cells; conditions: MRC5 cells versus MCF7 cells
[7] = test system: HT-29; assay: Induction of cell cycle arrest in human HT-29 cells assessed as increase the number of cells at S phase at 0.500 uM incubated for 24 hrs by propidium iodide staining based flow cytometry analysis relative to control; format: functional; conditions: dose 0.5 µM
[8] = test system: Ehrlich; assay: Antitumor activity against mouse Ehrlich solid carcinoma cells bearing adult male swiss albino mouse assessed as decrease in tumor volume at 50 mg/kg, po administered every other day and observed at 9 days; format: functional, organism-based; conditions: time 9.0 day
[9] = test system: Rattus norvegicus; assay: Antiinflammatory activity against carrageenan-induced paw edema Sprague-Dawley rat model assessed as inhibition of inflammation at 50 mg/kg, po after 5 hrs relative to control; format: functional; set-up: scale not given: the % may be the effect or the level left
[10] = species: Sus scrofa; assay: Inhibition of porcine brain tubulin polymerization at 1 uM by fluorescence-based tubulin polymerization assay
[11] = Acute ulcerogenic activity in Sprague-Dawley male rat assessed as average severity of ulcers at 50 mg/kg/day, po administered for 3 days; format: toxicity, organism-based; conditions: in vivo, 72 h, time 3 day
[12] = test system: HT-29; assay: Induction of apoptosis in human HT-29 cells assessed as accumulation of cells at early apoptotic stage at 0.5 uM incubated for 24 hrs by Annexin V-FITC/propidium iodide staining based flow cytometry analysis (reference value: 0.1%); format: functional
[13] = test system: MCF7; assay: Cytotoxicity against human MCF7 cells assessed as inhibition in cell growth incubated for 72 hrs by MTT assay; format: functional, cell-based; conditions: MCF7, 72 h
[14] = test system: Rattus norvegicus; assay: Antiinflammatory activity against carrageenan-induced paw edema Sprague-Dawley rat model assessed as inhibition of inflammation at 50 mg/kg, po after 1 hr relative to control; format: functional; set-up: scale not given: the % may be the effect or the level left
[15] = test system: HT-29; assay: Induction of cell cycle arrest in human HT-29 cells assessed as increase the number of cells at G2/M phase at 0.500 uM incubated for 24 hrs by propidium iodide staining based flow cytometry analysis relative to control; format: functional; conditions: dose 0.5 µM
[16] = Acute ulcerogenic activity in Sprague-Dawley male rat assessed as incidence of ulcer/10 animal at 50 mg/kg/day, po administered for 3 days; format: toxicity, organism-based; conditions: in vivo, 72 h, time 3 day
[17] = test system: Rattus norvegicus; assay: Antiinflammatory activity against carrageenan-induced paw edema Sprague-Dawley rat model assessed as inhibition of paw edema by measuring edema thickness at 50 mg/kg, po measured after 1 hr (reference value: 0.71 +/- 0.03 mm); format: functional
[18] = test system: Ehrlich; assay: Antitumor activity against mouse Ehrlich solid carcinoma cells bearing adult male swiss albino mouse assessed as tumor growth inhibition at 50 mg/kg, po administered every other day and observed at 13 days relative to control; format: functional; conditions: 312 h, time 13 day, read-out: TGI
[19] = Acute ulcerogenic activity in Sprague-Dawley male rat assessed as average number of ulcers at 50 mg/kg/day, po administered for 3 days; format: toxicity, organism-based; conditions: in vivo, 72 h, time 3 day
[20] = Acute ulcerogenic activity in Sprague-Dawley male rat assessed as congestion in edema at 50 mg/kg/day, po administered for 3 days by hematoxylin and eosin staining method; format: toxicity, organism-based; conditions: in vivo, 72 h, time 3 day
[21] = test system: Ehrlich; assay: Antitumor activity against mouse Ehrlich solid carcinoma cells bearing adult male swiss albino mouse assessed as decrease in tumor weight at 50 mg/kg, po administered every other day and observed at 14 days; format: functional, organism-based; conditions: time 14.0 day
[22] = test system: Ehrlich; assay: Antitumor activity against mouse Ehrlich solid carcinoma cells bearing adult male swiss albino mouse assessed as decrease in tumor volume at 50 mg/kg, po administered every other day and observed at 13 days; format: functional, organism-based; conditions: time 13.0 day
[23] = target: T1, Prostaglandin G/H synthase 1 (Ovis aries, UniProt P05979); assay: Inhibition of ovine COX-1
T1 sequence (P05979 whole entry): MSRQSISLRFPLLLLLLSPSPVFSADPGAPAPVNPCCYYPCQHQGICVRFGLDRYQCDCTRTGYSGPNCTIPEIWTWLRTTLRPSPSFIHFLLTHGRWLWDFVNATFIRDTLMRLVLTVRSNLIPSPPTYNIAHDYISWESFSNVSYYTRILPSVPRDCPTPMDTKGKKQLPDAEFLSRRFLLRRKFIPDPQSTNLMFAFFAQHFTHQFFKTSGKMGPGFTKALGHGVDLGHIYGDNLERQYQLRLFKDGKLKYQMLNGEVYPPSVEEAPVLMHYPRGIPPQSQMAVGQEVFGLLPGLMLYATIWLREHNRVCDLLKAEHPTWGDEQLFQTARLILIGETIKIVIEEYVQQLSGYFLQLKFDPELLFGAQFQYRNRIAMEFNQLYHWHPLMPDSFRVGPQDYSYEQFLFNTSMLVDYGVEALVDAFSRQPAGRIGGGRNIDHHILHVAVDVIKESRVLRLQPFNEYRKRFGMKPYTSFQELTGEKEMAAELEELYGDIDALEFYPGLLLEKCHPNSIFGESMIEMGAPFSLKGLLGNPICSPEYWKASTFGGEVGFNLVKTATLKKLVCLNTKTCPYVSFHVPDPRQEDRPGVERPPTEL

[24] = Selectivity index, ratio of IC50 for cytotoxicity against human MRC5 cells to IC50 for cytotoxicity against human HT-29 cells; conditions: MRC5 cells versus HT-29 cells
[25] = Selectivity index, ratio of IC50 for cytotoxicity against human MRC5 cells to IC50 for cytotoxicity against human A2780 cells; conditions: MRC5 cells versus A2780 cells
[26] = Acute ulcerogenic activity in Sprague-Dawley male rat assessed as congestion in submucosa at 50 mg/kg/day, po administered for 3 days by hematoxylin and eosin staining method; format: toxicity, organism-based, Stomach; conditions: in vivo, 72 h, time 3 day
[27] = test system: HT-29; assay: Anti-migration activity in human HT-29 cells assessed as suppression in cell migration at 0.500 uM incubated 48 hrs by wound-healing assay; format: functional, cell-based; conditions: dose 0.5 µM
[28] = test system: HT-29; assay: Anticlonogenic activity against human HT-29 cells assessed as reduction in number of colonies at 0.500 uM incubated for 24 hrs by clonogenic survival assay; format: functional, cell-based; conditions: dose 0.5 µM
[29] = Acute ulcerogenic activity in Sprague-Dawley male rat assessed as change in hyperactive glands at 50 mg/kg/day, po administered for 3 days by hematoxylin and eosin staining method; format: toxicity, organism-based, Stomach; conditions: in vivo, 72 h, time 3 day
[30] = Cytotoxicity against human MRC5 cells assessed as inhibition in cell growth incubated for 72 hrs by MTT assay; format: toxicity, cell-based
[31] = Acute ulcerogenic activity in Sprague-Dawley male rat assessed as change in normal non keratinized gastric mucosa at 50 mg/kg/day, po administered for 3 days by hematoxylin and eosin staining method; format: toxicity, organism-based, Stomach; conditions: in vivo, 72 h, time 3 day
[32] = test system: A2780; assay: Cytotoxicity against human A2780 cells assessed as inhibition in cell growth incubated for 72 hrs by MTT assay; format: functional, cell-based; conditions: A2780, 72 h
[33] = Acute ulcerogenic activity in Sprague-Dawley male rat assessed as ulcer index at 50 mg/kg/day, po administered for 3 days; format: toxicity, organism-based; conditions: in vivo, 72 h, time 3 day
[34] = test system: Rattus norvegicus; assay: Antiinflammatory activity against carrageenan-induced paw edema Sprague-Dawley rat model assessed as inhibition of paw edema by measuring edema thickness at 50 mg/kg, po measured after 3 hrs (reference value: 1.41 +/- 0.13 mm); format: functional
[35] = test system: HT-29; assay: Induction of apoptosis in human HT-29 cells assessed as accumulation of cells at viable stage at 0.5 uM incubated for 24 hrs by Annexin V-FITC/propidium iodide staining based flow cytometry analysis (reference value: 91.7%); format: functional
[36] = test system: Ehrlich; assay: Antitumor activity against mouse Ehrlich solid carcinoma cells bearing adult male swiss albino mouse assessed as decrease in tumor volume at 50 mg/kg, po administered every other day and observed at 5 days; format: functional, organism-based; conditions: time 5.0 day
[37] = test system: Rattus norvegicus; assay: Antiinflammatory activity against carrageenan-induced paw edema Sprague-Dawley rat model assessed as inhibition of paw edema by measuring edema thickness at 50 mg/kg, po measured after 5 hrs (reference value: 1.39 +/- 0.11 mm); format: functional

Cc1ccc(C2SCC(=O)N2c2ccc(OCC(=O)Nc3ccc(F)cc3)cc2)cc1 (configuration not stated)
Activity [1]: Non-Toxic
Activity [2]: 6.1%
Activity [3]: 7.7%
IC50 [4]: 460 nM
Activity [5]: 32.7%
selectivity ratio at 72 h [6]: 3.04
Activity [7]: 6.8%
Activity [8]: Active
Activity [9]: 58.99%
inhibition [10]: inactive
Activity [11]: 2.6
Activity [12]: 10%
IC50 [13]: 810 nM
Activity [14]: 15.3%
Activity [15]: 15.6%
Activity [16]: 10%
Activity [17]: 0.59 mm
inhibition in vivo at 50 mg/kg [18]: 57.2%
Activity [19]: 1.67
Activity [20]: Toxic
Activity [21]: Active
Activity [22]: Active
IC50 [23]: 2110 nM
selectivity ratio at 72 h [24]: 5.35
selectivity ratio at 72 h [25]: 0.23
Activity [26]: Toxic
Activity [27]: Active
Activity [28]: Active
Activity [29]: Non-Toxic
IC50 at 72 h [30]: 2460 nM
Activity [31]: Non-Toxic
IC50 [32]: 10500 nM
UI [33]: 14.27
Activity [34]: 0.55 mm
Activity [35]: 76.2%
Activity [36]: Active
Activity [37]: 0.57 mm

Reference: ChEMBL document CHEMBL5625227, “Discovery and optimization of 2,3-diaryl-1,3-thiazolidin-4-one-based derivatives as potent and selective cytotoxic agents with anti-inflammatory activity” (Eur J Med Chem, 2023)
